Source: paper PMC11798738, “Targeting ASK1 by CS17919 alleviates kidney‐ and liver‐related diseases in murine models” (Animal Models and Experimental Medicine, 2024)
Where two headings read alike, the source gives them in different places.

Tests used:
[1] = system: HUH7; experiment: MTS cytotoxicity assay, HUH7; format: cell-based, human; details: 72 h
Procedure: Human embryonic kidney cells (HEK‐293A), human hepatocellular carcinoma cells (HUH7), human embryonic liver diploid cells (CCC‐HEL‐1) and human embryonic lung cells (MRC‐5) were selected for the cytotoxicity study of both drugs, using the MTS assay protocol. Cells were cultured at 37°C with 5% CO2 using an appropriate medium. […] After 72 h of incubation, 30 μL of MTS solution was added to each well, and the cells were then incubated for 2–4 h in the dark. The absorbance value of each well at 490 nm was measured using an enzymatic plate reader and the IC50 for each drug and each cell line was calculated. Cell viability and cytoxicity experiments were repeated three times.

[2] = system: L02 cells; experiment: Effects of the drugs on L02 cells (Figure S1C); format: cell-based, human; details: 0.3–10 μmol/L
Procedure: FIGURE S1 (A) Chemical structural formulae of CS17919 and GS-4997. (B) Viability of L02 cells 72 h after 25–800 μmol/L (2-fold dilution) PA stimulation. (C) The effects of CS17919 and GS-4997 at different doses (0.3–10 μmol/L) on L02 cells. (D) Kidney weights in the UUO model. (E) Renal coefficients in the DKD model. (F) Urine ALB in the DKD model. (G) Liver weights in the NASH model. *: PA vs. Blank; GS-4997 vs. DMSO; Treatment vs. Model. #: CS17919 vs. DMSO; Control vs. Model. * p < 0.05, ## p < 0.01, *** p < 0.001, #### and **** p < 0.0001 were obtained by one-way ANOVA.

[3] = molecular target: human ASK1 kinase (Homo sapiens, UniProt Q99683); experiment: ASK1 kinase inhibition, HTRF assay; details: read-out: IC50, inhibition of ASK1, full-length recombinant human ASK1
Chain of human ASK1 kinase (Q99683 whole entry): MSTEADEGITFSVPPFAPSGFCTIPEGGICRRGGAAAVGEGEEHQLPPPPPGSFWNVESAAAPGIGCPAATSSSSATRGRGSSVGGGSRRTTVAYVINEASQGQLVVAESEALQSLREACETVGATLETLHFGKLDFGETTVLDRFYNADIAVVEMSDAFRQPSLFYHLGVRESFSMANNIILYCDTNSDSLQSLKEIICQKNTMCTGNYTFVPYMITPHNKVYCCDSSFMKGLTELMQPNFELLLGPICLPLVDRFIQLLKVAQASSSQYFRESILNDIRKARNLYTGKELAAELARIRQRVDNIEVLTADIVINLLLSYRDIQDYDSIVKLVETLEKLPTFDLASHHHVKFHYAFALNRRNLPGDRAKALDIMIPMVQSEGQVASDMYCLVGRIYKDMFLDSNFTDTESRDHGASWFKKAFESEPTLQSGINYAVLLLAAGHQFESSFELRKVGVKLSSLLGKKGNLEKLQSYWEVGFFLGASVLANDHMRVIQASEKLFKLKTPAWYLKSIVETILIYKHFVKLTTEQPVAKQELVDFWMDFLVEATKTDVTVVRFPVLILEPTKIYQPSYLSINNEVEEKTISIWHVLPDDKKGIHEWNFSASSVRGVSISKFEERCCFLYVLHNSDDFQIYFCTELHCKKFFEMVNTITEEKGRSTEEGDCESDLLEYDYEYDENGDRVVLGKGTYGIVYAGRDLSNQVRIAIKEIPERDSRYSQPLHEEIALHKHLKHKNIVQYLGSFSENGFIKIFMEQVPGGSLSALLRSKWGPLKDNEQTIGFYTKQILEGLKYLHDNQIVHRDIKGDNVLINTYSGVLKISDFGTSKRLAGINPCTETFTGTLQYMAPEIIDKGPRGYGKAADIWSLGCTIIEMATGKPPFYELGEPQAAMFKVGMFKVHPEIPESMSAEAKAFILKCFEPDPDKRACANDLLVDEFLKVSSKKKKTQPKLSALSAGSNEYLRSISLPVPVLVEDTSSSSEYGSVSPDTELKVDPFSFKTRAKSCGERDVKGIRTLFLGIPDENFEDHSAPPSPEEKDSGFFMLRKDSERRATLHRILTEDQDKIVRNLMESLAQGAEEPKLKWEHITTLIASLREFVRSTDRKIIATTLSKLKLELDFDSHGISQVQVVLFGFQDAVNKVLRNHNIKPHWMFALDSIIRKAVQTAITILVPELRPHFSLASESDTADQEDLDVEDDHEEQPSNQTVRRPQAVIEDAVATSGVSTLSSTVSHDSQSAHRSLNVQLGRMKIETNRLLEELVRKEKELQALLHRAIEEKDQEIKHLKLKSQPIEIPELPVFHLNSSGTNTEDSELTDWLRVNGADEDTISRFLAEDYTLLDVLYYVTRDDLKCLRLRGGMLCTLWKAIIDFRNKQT
Description: Enzymatic activity analysis was repeated three times. IC50 results were obtained using Prism 8.0 (GraphPad Prism Software).

[4] = molecular target: CYP 2C9 (Homo sapiens, UniProt P11712); experiment: CYP inhibition in vitro; format: in vitro ADME
Chain of CYP 2C9 (P11712 whole entry): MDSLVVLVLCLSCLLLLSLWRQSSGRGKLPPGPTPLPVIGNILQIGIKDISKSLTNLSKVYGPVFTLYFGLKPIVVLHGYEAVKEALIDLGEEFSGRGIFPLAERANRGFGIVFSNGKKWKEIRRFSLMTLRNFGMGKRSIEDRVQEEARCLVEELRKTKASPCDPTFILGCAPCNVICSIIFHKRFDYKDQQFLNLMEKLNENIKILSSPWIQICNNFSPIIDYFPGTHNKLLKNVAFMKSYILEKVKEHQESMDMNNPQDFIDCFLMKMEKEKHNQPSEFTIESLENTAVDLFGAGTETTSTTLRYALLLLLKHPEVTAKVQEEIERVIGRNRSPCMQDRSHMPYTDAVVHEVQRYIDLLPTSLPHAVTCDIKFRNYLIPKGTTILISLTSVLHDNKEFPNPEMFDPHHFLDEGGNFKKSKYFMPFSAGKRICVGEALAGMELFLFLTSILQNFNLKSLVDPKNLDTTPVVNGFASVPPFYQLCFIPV

[5] = molecular target: T1, CYP3A4 (Homo sapiens, UniProt P08684); experiment: CYP inhibition in vitro; details: read-out: CYP3A4 (Midazolam) inhibition IC50; substrate Midazolam
T1 sequence (P08684 whole entry): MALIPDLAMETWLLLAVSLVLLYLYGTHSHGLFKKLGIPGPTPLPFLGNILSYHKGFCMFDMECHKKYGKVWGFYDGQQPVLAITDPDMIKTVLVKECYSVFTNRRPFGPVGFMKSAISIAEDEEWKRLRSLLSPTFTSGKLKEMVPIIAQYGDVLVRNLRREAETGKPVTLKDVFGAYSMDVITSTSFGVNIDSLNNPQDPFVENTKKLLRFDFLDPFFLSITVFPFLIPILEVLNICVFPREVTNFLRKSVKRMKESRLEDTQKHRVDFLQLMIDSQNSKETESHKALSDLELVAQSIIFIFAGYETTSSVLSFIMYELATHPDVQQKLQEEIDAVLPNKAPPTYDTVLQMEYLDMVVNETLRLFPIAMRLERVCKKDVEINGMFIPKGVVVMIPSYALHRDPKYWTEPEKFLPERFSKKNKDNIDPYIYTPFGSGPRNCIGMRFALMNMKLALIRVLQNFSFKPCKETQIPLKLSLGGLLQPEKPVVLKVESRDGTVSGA

[6] = molecular target: T1, CYP3A4
[7] = Tissue distribution in mice, oral; format: in vivo, C57BL/6J mice; details: 20 mg/kg gavage
Procedure: Male C57BL/6J mice at 6–8 weeks (Beijing Huafukang Biotechnology Co., Ltd) were also selected for tissue distribution studies. Mice were gavage‐administered at 20 mg/kg and anesthetized at 1, 2, 4, and 8 h after administration for tissue collection, including whole blood, heart, liver, kidney, and brain. These organs were homogenized using a tissue homogenizer and analyzed together with the plasma according to the standard LC/MS procedure.

[8] = Metabolic stability in liver microsomes; format: in vitro ADME; details: Mouse
[9] = system: UUO mouse model; experiment: UUO mouse model of kidney injury and fibrosis; format: in vivo, C57BL/6J mice
Procedure: 55 C57BL/6J mice, male, 6–8 weeks old were purchased from Chengdu Pharmachem Biotechnology Co. (Chengdu, China) and randomly divided into 5 groups according to their body weight: Sham (n = 10), Model (n = 15), CS17919L (10 mg/kg, n = 10), CS17919H (60 mg/kg, n = 10), and GS‐4997 (30 mg/kg, n = 10). The mice were anesthetized and fixed on the operating table, and the abdominal cortex and muscles were cut in the middle of the right side of the abdomen, and the ureter was searched for along the renal hilum. The ureter was separated using a glass split‐needle and ligated at the opening of the renal pelvis and the upper 1/3 of the ureter, and the ureter was cut between the two ligatures. Finally, the muscle and skin were closed with consecutive sutures, and animals were kept under observation until they awoke. Both the Sham and the Model group received solvent (0.2% CMC‐Na + 0.1% Tween‐80) orally twice daily. CS17919 and GS‐4997 were administered by gavage twice daily at the corresponding doses for 11 days. All treatments were started one day before surgical operation. All mice were sacrificed one day after administration with overnight fasting. Blood was collected, and serum was isolated for the analysis of urea nitrogen and creatinine. The kidney of each mouse was removed, weighed and fixed in 10% formalin solution for pathological study.
Masson staining was applied to determine kidney fibrosis in the UUO model. Thin 4 μm paraffin sections of each sample were used in this study, which followed the standard procedure. The sections were stained with Hematoxylin staining solution for 5–10 min and then washed, followed by staining with Ponceau S‐acid fuchsin stain for around 5–10 min. The sections were treated with 1% phosphomolybdic acid and Aniline Blue solution, and finally dehydrated stepwise in alcohol and sealed. VIS7.0 software was used to analyze the area of kidney fibrosis and the percentage of the fibrosis area in the scanning area was calculated.

[10] = CS17919 10 and 60 mg/kg, GS-4997 30 mg/kg, gavage twice daily, 11 days

Cc1cc(F)c(C(=O)Nc2cccc(-c3nncn3[C@H](C)C(F)(F)F)n2)cc1NC(=O)C1CC1 [CS17919]
Cytotoxicity (cell viability) [1]: barely affected cell viability | Safety in L02 cells [2]: safer than GS‐4997 | IC50 [3]: 0.0225 µM | IC50 [4]: > 10 µM | IC50 [5]: 3.02 µM | IC50 [6]: > 10 µM | Tissue accumulation [7]: tissue‐specific accumulation of CS17919 in the liver and kidney | Brain concentration ([7]; 1 h, mean ± SD, n = 3): 30.42 ± 6.82 ng/g | Heart concentration ([7]; 1 h, mean ± SD, n = 3): 1330.94 ± 384.66 ng/g | Kidney concentration ([7]; 1 h, mean ± SD, n = 3): 4353.18 ± 260.20 ng/g | Liver concentration ([7]; 1 h, mean ± SD, n = 3): 8933.89 ± 456.44 ng/g | Plasma concentration ([7]; 1 h, mean ± SD, n = 3): 3104.56 ± 474.21 ng/mL | Brain concentration ([7]; 2 h, mean ± SD, n = 3): 7.37 ± 1.98 ng/g | Heart concentration ([7]; 2 h, mean ± SD, n = 3): 918.02 ± 156.73 ng/g | Kidney concentration ([7]; 2 h, mean ± SD, n = 3): 2751.58 ± 252.41 ng/g | Liver concentration ([7]; 2 h, mean ± SD, n = 3): 5322.41 ± 114.54 ng/g | Plasma concentration ([7]; 2 h, mean ± SD, n = 3): 2737.71 ± 208.45 ng/mL | Brain concentration ([7]; 4 h, mean ± SD, n = 3): 8.28 ± 4.78 ng/g | Heart concentration ([7]; 4 h, mean ± SD, n = 3): 338.03 ± 97.76 ng/g | Kidney concentration ([7]; 4 h, mean ± SD, n = 3): 1173.69 ± 135.53 ng/g | Liver concentration ([7]; 4 h, mean ± SD, n = 3): 2371.88 ± 421.50 ng/g | Plasma concentration ([7]; 4 h, mean ± SD, n = 3): 1444.51 ± 155.53 ng/mL | Heart concentration ([7]; 8 h, mean ± SD, n = 3): 256.60 ± 117.57 ng/g | Kidney concentration ([7]; 8 h, mean ± SD, n = 3): 993.13 ± 136.67 ng/g | Liver concentration ([7]; 8 h, mean ± SD, n = 3): 1939.43 ± 337.32 ng/g | Plasma concentration ([7]; 8 h, mean ± SD, n = 3): 856.1 ± 332.34 ng/mL | Brain concentration ([7]; 8 h, LLOQ 1 ng/g): LLOQ (<1) ng/g | T1/2 in liver microsomes [8]: >145 min | Area of kidney fibrosis (Masson staining) [9, 10]: tendency to reduce | Serum creatinine vs model group [9, 10]: non‐significant tendency to decrease | Serum urea nitrogen vs model group [9, 10]: significantly reduced | Inflammatory infiltration and interstitial fibrosis scores (H&E) ([9]; CS17919 high-dose group (60 mg/kg twice daily, 11 days)): improved significantly
